Measured values reported in US8067542B1 (priority 2003, dated 2011).
Where two headings read alike, the source gives them in different places.

How the values were obtained:
[1] = tested on: Fusarium graminearum; format: cell-based
[2] = tested on: Verticillium dahliae; format: cell-based
[3] = tested on: Verticillium dahliae; details: plants expressing AlfAFP; cited from earlier work
[4] = tested on: Fusarium graminearum; details: cited from earlier work
[5] = High Ionic Strength Media (50 mM K+, 1 mM Ca2+)

| Substance | minimun concentration of protein required to inhibit fungal growth [1, 5] | minimun concentration of protein required to inhibit fungal growth ([1]; Standard Media) [ppm] | minimum concentration of protein required to inhibit fungal growth [2, 5] [ppm] | minimum concentration of protein required to inhibit fungal growth ([2]; Standard Media) [ppm] | agronomic effect on potato tuber size [3] | protection of plants infected with Fusarium head blight [4] |
| --- | --- | --- | --- | --- | --- | --- |
| Alf - wt: native alfalfa antifungal protein (plant defensin from Medicago sativa seeds), SEQ ID NO:2 (RTCENLADKYRGPCFSGCDTHCTTKENAVSGRCRDDFRCWCTKRC; listed as Medicago sativa) | 15-20 ppm | 10 | 15 | 5 | reduction in potato tuber size | unable to provide an adequate level of protection |
| Alf3: AlfAFP variant: AsnTyr inserted between C33 and R34 (RTCENLADKYRGPCFSGCDTHCTTKENAVSGRCNYRDDFRCWCTKRC; listed as Medicago sativa) | >>>20 ppm | 20 |  |  |  |  |
